Results taken from ChEMBL document CHEMBL5360560, “Anti-Vibrio potential of natural products from marine microorganisms” (Eur J Med Chem, 2023).
≈ marks a conversion by molar mass, not a printed value. Each block holds one compound with its values, some of them ahead of it.

How the values were obtained:
Vibrio anguillarum [1] = assay: Antimicrobial activity against Vibrio anguillarum QDIO-6 assessed as bacterial growth inhibition by microtiter plate assay; assay type: functional
Vibrio parahaemolyticus [2] = assay: Antimicrobial activity against Vibrio parahaemolyticus ATCC 17802 assessed as bacterial growth inhibition by microplate reader assay; assay type: functional
Vibrio alginolyticus [3] = assay: Antimicrobial activity against Vibrio alginolyticus assessed as bacterial growth inhibition by microplate reader assay; assay type: functional
Vibrio parahaemolyticus [4] = assay: Antimicrobial activity against Vibrio parahaemolyticus ATCC 17802 assessed as bacterial growth inhibition mesured after 48 hrs by broth dilution assay; assay type: functional
Vibrio parahaemolyticus [5] = assay: Bactericidal activity against Vibrio parahaemolyticus ATCC 17802 assessed as bacterial growth inhibition mesured after 48 hrs by broth dilution assay; assay type: functional
Vibrio sp. = assay: Antibacterial activity against Vibrio sp. assessed as bacterial growth inhibition relative to control; assay type: functional
Vibrio parahaemolyticus [6] = assay: Antimicrobial activity against Vibrio parahaemolyticus assessed as zone of inhibition; assay type: functional
Vibrio alginolyticus [7] = assay: Antimicrobial activity against Vibrio alginolyticus assessed as bacterial growth inhibition; assay type: functional
Vibrio harveyi [8] = assay: Antimicrobial activity against Vibrio harveyi BB120 assessed as bacterial growth inhibition by bioluminescence based Quorum-Sensing assay; assay type: functional, organism-based
Vibrio anguillarum [9] = assay: Antimicrobial activity against Vibrio anguillarum assessed as bacterial growth inhibition; assay type: functional
Vibrio harveyi [10] = assay: Antimicrobial activity against Vibrio harveyi assessed as bacterial growth inhibition; assay type: functional
Vibrio alginolyticus [11] = assay: Antimicrobial activity against Vibrio alginolyticus assessed as zone of inhibition; assay type: functional
Vibrio parahaemolyticus [12] = assay: Antibacterial activity against Vibrio parahaemolyticus assessed as bacterial growth inhibition by agar dilution method; assay type: functional
Vibrio harveyi [13] = assay: Antimicrobial activity against Vibrio harveyi QDIO-9 assessed as bacterial growth inhibition; assay type: functional
Vibrio parahaemolyticus [14] = assay: Antimicrobial activity against Vibrio parahaemolyticus QDIO-10 assessed as bacterial growth inhibition; assay type: functional
Vibrio vulnificus [15] = assay: Antimicrobial activity against Vibrio vulnificus assessed as bacterial growth inhibition; assay type: functional
Vibrio rotiferianus [16] = assay: Antimicrobial activity against Vibrio rotiferianus assessed as bacterial growth inhibition; assay type: functional
Vibrio campbellii [17] = assay: Antimicrobial activity against Vibrio campbellii assessed as bacterial growth inhibition; assay type: functional
Vibrio parahaemolyticus [18] = assay: Antimicrobial activity against Vibrio parahaemolyticus QDIO-10 assessed as bacterial growth inhibition measured after 24 hrs by microtitre plate reader assay; assay type: functional
Vibrio anguillarum [19] = assay: Antimicrobial activity against Vibrio anguillarum QDIO-8 assessed as bacterial growth inhibition measured after 24 hrs by microtitre plate reader assay; assay type: functional
Vibrio harveyi [20] = assay: Antimicrobial activity against Vibrio harveyi QDIO-9 assessed as bacterial growth inhibition measured after 24 hrs by microtitre plate reader assay; assay type: functional
Vibrio vulnificus [21] = assay: Antimicrobial activity against Vibrio vulnificus MCCC E1758 assessed as bacterial growth inhibition by resazurin dye based assay; assay type: functional
Vibrio campbellii [22] = assay: Antimicrobial activity against Vibrio campbellii MCCC E333 assessed as bacterial growth inhibition by resazurin dye based assay; assay type: functional
Vibrio parahaemolyticus [23] = assay: Antimicrobial activity against Vibrio parahaemolyticus MTCC451 assessed as zone of inhibition in diameter per disc at 100 ug measured for 24 to 72 hrs; assay type: functional; details: time 24-72 hrs, read-out: IZ
Vibrio vulnificus [24] = assay: Antimicrobial activity against Vibrio vulnificus MTCC1145 assessed as zone of inhibition in diameter per disc at 100 ug measured for 24 to 72 hrs; assay type: functional; details: time 24-72 hrs, read-out: IZ
Vibrio anguillarum [25] = assay: Antimicrobial activity against Vibrio anguillarum assessed as zone of inhibition per disc at 100 ug measured after 24 hrs by disc diffusion assay; assay type: functional; details: read-out: IZ
Vibrio rotiferianus [26] = assay: Antibacterial activity against Vibrio rotiferianus MCCC E385 assessed as cell growth inhibition measured after 24 hrs by resazurin dye based assay; assay type: functional
Vibrio campbellii [27] = assay: Antibacterial activity against Vibrio campbellii MCCC E333 assessed as cell growth inhibition measured after 24 hrs by resazurin dye based assay; assay type: functional
Vibrio vulnificus [28] = assay: Antibacterial activity against Vibrio vulnificus MCCC E1758 assessed as cell growth inhibition measured after 24 hrs by resazurin dye based assay; assay type: functional
Vibrio parahaemolyticus [29] = assay: Antimicrobial activity against Vibrio parahaemolyticus MISR 21116 assessed as bacterial growth inhibition measured after 24 hrs by broth microdilution assay; assay type: functional
Vibrio vulnificus [30] = assay: Antimicrobial activity against Vibrio vulnificus MISR 20716 assessed as bacterial growth inhibition measured after 24 hrs by broth microdilution assay; assay type: functional
Vibrio alginolyticus [31] = assay: Antimicrobial activity against Vibrio alginolyticus MISR 30816 assessed as bacterial growth inhibition measured after 24 hrs by broth microdilution assay; assay type: functional
Vibrio anguillarum [32] = assay: Antimicrobial activity against Vibrio anguillarum assessed as zone of inhibition per disk at 100 ug; assay type: functional; details: read-out: IZ
Vibrio anguillarum [33] = assay: Antimicrobial activity against Vibrio anguillarum assessed as zone of inhibition; assay type: functional
Vibrio harveyi [34] = assay: Antimicrobial activity against Vibrio harveyi assessed as zone of inhibition; assay type: functional
Vibrio splendidus = assay: Antimicrobial activity against Vibrio splendidus assessed as zone of inhibition; assay type: functional

- MIC (Vibrio anguillarum [1]): 2 µg/mL
Structure (SMILES): COC(=O)[C@H](O)CS[C@@H]1CCCCCCC[C@@H](C)OC(=O)C1

Structure (SMILES): COc1c(Cl)c(C)c(Cl)c2c1[C@H]1c3c(O)c(C)cc(O)c3C[C@H]1C(C)(C)O2 (racemic)
- MIC (Vibrio parahaemolyticus [2]): 10 µM
- MIC (Vibrio alginolyticus [3]): 10 µM

Structure (SMILES): COc1cc(C)c(Oc2cc(C)cc(O)c2)c(O)c1 [CYPERIN]
- MIC (Vibrio parahaemolyticus [4]): 0.312 µM (≈ 0.0812 µg/mL)
- MBC (Vibrio parahaemolyticus [5]): 0.312 µM (≈ 0.0812 µg/mL)

Structure (SMILES): O=C1c2cccc(O)c2C(=O)c2c1cc(O)c(C(CO)CCO)c2O (stereo not given)
- MIC (Vibrio parahaemolyticus [2]): 24 µg/mL

Structure (SMILES): COc1ccc(Oc2cc(C)cc(O)c2)c(O[C@@H]2O[C@H](CO)[C@H](O)[C@H](O)[C@H]2O)c1
- MIC (Vibrio parahaemolyticus [4]): 0.625 µM (≈ 0.255 µg/mL)
- MBC (Vibrio parahaemolyticus [5]): 2.5 µM (≈ 1.02 µg/mL)

Structure (SMILES): COc1cc(-c2ccc(O)cc2)c(OC)c(O)c1-c1ccc(O)cc1 [TERPHENYLLIN]
- inhibition (INH) (Vibrio sp.): >80%

- MIC (Vibrio alginolyticus [7]): 16 µg/mL (≈ 35.8 µM)
Structure (SMILES): CC1(C)C=Cc2c(ccc3c2[N+]([O-])=C2C3CC34NC(=O)[C@@]5(CCCN5C3=O)C[C@H]4C2(C)C)O1 (stereo not given in full)
- MIC (Vibrio parahaemolyticus [6]; Vibrio parahaemolyticus): 8 µg/mL (≈ 17.9 µM)

Structure (SMILES): O=C(/C=C/CCl)O[C@@H]1COC(=O)C1
- IC50 (Vibrio harveyi [8]): 5.6 µM

- MIC (Vibrio anguillarum [9]): 65 µM
- MIC (Vibrio harveyi [10]): 65 µg/mL (≈ 216 µM)
Structure (SMILES): C/C=C/CC/C=C/c1c(O)cc(CC=C(C)C)c(O)c1C=O

Structure (SMILES): CC(C)C[C@@H]1NC(=O)[C@H]2C[C@H](O)CN2C1=O
- inhibition zone (IZ) (Vibrio alginolyticus [11]): 20 mm
- inhibition zone (IZ) (Vibrio parahaemolyticus [6]): 12 mm

Structure (SMILES): CO[C@H](C)[C@@H](/C=C/C=C/C(=O)N(C)[C@H]1CCCN(C)C(=O)[C@H](C)N(C)C(=O)[C@H](C(C)C)N(C)C1=O)OC
- MIC (Vibrio parahaemolyticus [12]): 25 µM (≈ 13.1 µg/mL)

- MIC (Vibrio anguillarum [9]): 12.5 µg/mL
Structure (SMILES): CCC[C@@H]1C(C)=C[C@@H]2C[C@H](C)CC[C@H]2[C@]1(C)C(=O)C1=C(O)C(=O)NC1=O

- MIC (Vibrio harveyi [13]): 8 µg/mL (≈ 26.5 µM)
Structure (SMILES): C=C[C@@]1(C)CCC2=C(C(=O)C=C3C(C)(C)CCC[C@]32O)[C@@H]1O
- MIC (Vibrio parahaemolyticus [14]): 8 µg/mL (≈ 26.5 µM)

Structure (SMILES): Cc1cc(O)c2c(c1)C(=O)c1cc(O)cc(O)c1C2=O [EMODIN]
- MIC (Vibrio vulnificus [15]): 15.6 µg/mL (≈ 57.7 µM)
- MIC (Vibrio rotiferianus [16]): 15.6 µg/mL (≈ 57.7 µM)
- MIC (Vibrio campbellii [17]): 15.6 µg/mL (≈ 57.7 µM)

- MIC (Vibrio anguillarum [19]): 4 µg/mL (≈ 14.2 µM)
- MIC (Vibrio harveyi [20]): 4 µg/mL (≈ 14.2 µM)
Structure (SMILES): CC(C)(O)CCCC(C)(O)c1ccc(C(=O)O)cc1O (stereo not given)
- MIC (Vibrio parahaemolyticus [18]): 4 µg/mL (≈ 14.2 µM)

- MIC (Vibrio vulnificus [21]): 15.7 µg/mL (≈ 70 µM)
- MIC (Vibrio campbellii [22]): 15.6 µg/mL (≈ 69.6 µM)
Structure (SMILES): Cc1c(O)cc(O)cc1[C@H](C)[C@@H](C)OC=O

Structure (SMILES): CC[C@@H](O)/C=C/CC(=O)O[C@@H]1/C=C/C=C\C[C@H](O)C[C@@H](O)/C=C/C=C\CCC[C@@H](C)OC(=O)/C=C\C=C\C1
- zone of inhibition at 100 µg/disc (Vibrio parahaemolyticus [23]): 16 mm
- zone of inhibition at 100 µg/disc (Vibrio vulnificus [24]): 14.3 mm

Structure (SMILES): O=C1N[C@H](Cc2ccccc2)C(=O)N2CCC[C@@H]12
- zone of inhibition at 100 µg/disc (Vibrio anguillarum [25]): 24 mm

- MIC (Vibrio rotiferianus [26]): 7.75 µg/mL (≈ 17.8 µM)
- MIC (Vibrio campbellii [27]): 15.6 µg/mL (≈ 35.9 µM)
- MIC (Vibrio vulnificus [28]): 7.77 µg/mL (≈ 17.9 µM)
Structure (SMILES): COc1cc2oc3c(OC)c(-c4ccc(O)c(CC=C(C)C)c4)cc(OC)c3c2cc1O

Structure (SMILES): CC(C)[C@H]1C(=O)N(C)[C@@H](C)C(=O)NCCC[C@H](NC(=O)/C=C/C=C/C(=O)O)C(=O)N1C
- MIC (Vibrio parahaemolyticus [12]): 3.13 µM (≈ 1.37 µg/mL)

Structure (SMILES): O=C1N[C@@H](Cc2ccccc2)C(=O)N2CCC[C@@H]12
- zone of inhibition at 100 µg/disc (Vibrio anguillarum [25]): 25 mm

- MIC (Vibrio harveyi [13]): 8 µg/mL (≈ 26.5 µM)
Structure (SMILES): C=C[C@@]1(C)CCC2=C(C(=O)C=C3C(C)(C)CCC[C@]32O)[C@H]1O
- MIC (Vibrio parahaemolyticus [14]): 8 µg/mL (≈ 26.5 µM)

- MIC (Vibrio alginolyticus [7]): 32 µg/mL (≈ 78.5 µM)
Structure (SMILES): COC(=O)[C@@H]1CCCN1C(=O)c1cc2c([nH]c3cc(OC)ccc32)c(C=C(C)C)n1

- MIC (Vibrio vulnificus [30]): 64 µg/mL (≈ 153 µM)
- MIC (Vibrio alginolyticus [31]): 64 µg/mL (≈ 153 µM)
Structure (SMILES): C[C@@H]1CCC/C=C/[C@@H]2O[C@H](C[C@@H](O)C/C=C\C=C\[C@@H](O)C/C=C/C=C\C(=O)O1)[C@H]2O
- MIC (Vibrio parahaemolyticus [29]): 64 µg/mL (≈ 153 µM)

Structure (SMILES): COc1cc(O)c2c(=O)oc3cc(O)cc(C)c3c2c1
- zone of inhibition at 100 µg/disc (Vibrio anguillarum [32]): 9 mm

- MIC (Vibrio anguillarum [33]): 6.1 µg/mL (≈ 14.3 µM)
- MIC (Vibrio harveyi [34]): 6.1 µg/mL (≈ 14.3 µM)
- MIC (Vibrio splendidus): 6.1 µg/mL (≈ 14.3 µM)
Structure (SMILES): CC(=O)N[C@H]1[C@@H](O[C@]2(C)C=C[C@@H]([C@@H](C)CCC=C(C)C)CC2)O[C@H](CO)[C@@H](O)[C@@H]1O
- inhibition zone (IZ) (Vibrio parahaemolyticus [6]): 6.1 mm

- MIC (Vibrio anguillarum [9]): 20 µM
- MIC (Vibrio harveyi [10]): 32 µg/mL (≈ 96.6 µM)
Structure (SMILES): O=C(O)c1cn(C2CC2)c2cc(N3CCNCC3)c(F)cc2c1=O [CIPROFLOXACIN]
- zone of inhibition at 100 µg/disc (Vibrio anguillarum [25]): 26 mm
